Measurements: US20250034089A1, “TETRAHYDROCARBAZOLE COMPOUND, AND PHARMACEUTICAL COMPOSITION AND USE THEREOF” (NAIN BIOTECH (HANGZHOU) CO., LTD., priority 2021, published 2025)

Tests used:
[1] = test system: HeLa (human cervical cancer cells); assay: In vitro proliferation inhibition (CCK-8), HeLa; format: cell-based
From the text: • 1) Cell sources: HeLa (human cervical cancer cells), CaSki (human cervical cancer intestinal metastasis cells), Huh7 (human liver cancer cells), HepG2 (human liver cancer cells), Hep3B (human liver cancer cells) were purchased from the Chinese Academy of Sciences cell bank (Shanghai); LO2 (human normal liver cells) and HcerEpic (human normal uterine epithelial cells) were from ATCC. • 2) Cell culture and passage: The cell culture and passage method is the same as that described in “The inhibitory effect of compounds on the OCT4 protein in tumor stem cells (CSC)”. • 3) Cell dosing treatment: The each type of cells mentioned above was digested, counted, and inoculated in each well of the 96 well cell culture plate (#3988, Corning) at a density of 5000 cells/200 μl culture medium. They were cultured in a cell culture incubator at 37° C. and 5% CO2 for 24 hours to allow the cells to fully adherent to the wall. Then, the original culture medium was replaced with complete culture medium containing gradient diluted KZT-A5 (each concentration with 3 repeated wells) as well as DMSO (#D5879, Sigma Aldrich) solvent control, and they are cultured for additional 72 hours. • 4) Pharmacodynamic test and statistics: First, the morphology of cells treated with the above compounds was observed, photographed and recorded using an inverted phase contrast microscope (X71, Olympus). Then the original culture medium was replaced with phenol red free culture medium containing CCK-8 detection reagent (#E606335, Shanghai Shenggong) respectively, and they are cultured in the incubator for additional 2 hours. Then the OD450 nm absorbance value (OD value) was measured on a multifunctional enzyme-linked immunosorbent assay (168-1130, Bio Rad). After the cells were treated with the test compound, the equations for calculating the cell survival rate or cell growth rate is: survival rate=GD value of the treated group/OD value of the control group×100%; the equations for calculating the growth inhibition rate of compounds on cell proliferation is: inhibition rate=(OD value of control group−OD value of the treated group)/OD value of control group×100%. Further, the IC50 of each compound was calculated in SPSS based on the inhibition rate.
• 1) Cell sources: Huh7 (human liver cancer cells), HepG2 (human liver cancer cells), Hep3B (human liver cancer cells), and HeLa (human cervical cancer cells) were all purchased from the Chinese Academy of Sciences cell bank (Shanghai), while LO2 (human normal liver cells) was obtained from ATCC. • 2) Cell culture and passage: The cell culture and passage method is the same as that described in “The inhibitory effect of compounds on human tumor cell lines from different tissue sources (1)”. • 3) Cell dosing treatment: The cell dosing treatment method is the same as that described in “The inhibitory effect of compounds on human tumor cell lines from different tissue sources (1). • 4) Pharmacodynamic test and statistics: The pharmacodynamic test and statistics method is the same as that described in “The inhibitory effect of compounds on human tumor cell lines from different tissue sources (1)”. The IC50 value data of the compound on each type of tumor cells is the average±standard deviation of three wells in one test.

OCT4 protein = molecular target: T1, OCT4 protein (Homo sapiens, UniProt Q01860); assay: Inhibitory effect on OCT4 protein in HeLa cells (Western blot); format: cell-based; details: FIG. 2
T1 construct: HeLa cell line 3A11 with endogenous high expression of OCT4; endogenous in cells; host or cells: HeLa cell line 3A11
From the text: • 1) Cell source: HeLa cell line 3A11 with endogenous high expression of OCT4, constructed by the inventor's laboratory (Zhou Y et al. Endogenous authentic OCT4A proteins directly regulate FOS/AP-1 transcription in physiological cancer cells. Cell Death Dis. 2018, 9:585). • 2) Cell culture and passage: All of the above cells were adherently cultured in complete culture medium [to a 6-cm culture dish (#430166, Corning) or T75 culture bottle (#3276, Corning) containing DMEM high-sugar basal medium (#SH30243.01B, HyClone) was added a final concentration of 10% FBS (#1101-500, Shanghai Pufei) and Penicillin-Streptomycin dual antibody (#SV30010, HyClone)]. The culture dish (bottle) was placed in a cell culture incubator (#3111, Thermo Fisher Scientific) at 37° C., 5% CO2, and saturated humidity. […] The supernatant was discarded, and the cell clumps were resuspended with fresh complete culture medium, blown into single cells again, passaged and inoculated into new culture dishes (bottles) in a ratio of 1:3-1:6, the complete culture medium was supplemented, and then placed in a cell culture incubator at 37° C. and 5% CO2 for culture. • 3) Cell dosing treatment: The above-mentioned HeLa cells were digested, counted, and inoculated into each well of the 96 well cell culture plate (#3988, Corning) at a density of 5000 cells/200 μl culture medium. […]

T1 sequence (Q01860 whole entry): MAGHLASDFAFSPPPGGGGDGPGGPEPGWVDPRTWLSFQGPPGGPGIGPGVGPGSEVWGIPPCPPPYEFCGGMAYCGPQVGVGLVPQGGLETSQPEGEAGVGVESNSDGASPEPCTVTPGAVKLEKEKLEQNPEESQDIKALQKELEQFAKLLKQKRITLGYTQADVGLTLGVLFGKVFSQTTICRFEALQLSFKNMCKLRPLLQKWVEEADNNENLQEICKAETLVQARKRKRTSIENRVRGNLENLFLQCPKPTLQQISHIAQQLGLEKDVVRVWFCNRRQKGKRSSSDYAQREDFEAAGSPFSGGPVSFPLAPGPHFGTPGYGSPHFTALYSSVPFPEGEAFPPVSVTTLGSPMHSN

IC50 ([1]; 72 hours, CCK-8, average of three wells in one test): 570 nM | IC50 ([1]; Homo sapiens, 72 h, CCK-8, average of three wells in one test): < 1000 nM | IC50 ([1]; Homo sapiens, test (2), average±standard deviation of three wells): 700 ± 10 nM
SMILES: COc1cc(/C=C2\CCc3c([nH]c4ccc(C)cc34)C2=O)ccc1O [KZT-A5]
inhibitory effect compared with AH057 ([1]; Table 3): comparable to AH057 | dose dependence of inhibition of OCT4 protein expression (OCT4 protein; HeLa 3A11, 10 μM vs 100 μM): dose-dependently inhibit the expression of OCT4 protein | inhibitory effect on OCT4 protein (downregulation) (OCT4 protein; HeLa cell line 3A11, 48-72 hours): most significant effect in downregulating OCT4 protein
